How the values were obtained:
Format in all cases: cell-based
HeLa-C3 cells [1] = assay: Cell morphology changes during compound treatment (FIG. 5)
Protocol: Various cell morphologies were recorded at the indicated time points. The control cells have normal attached cell morphology through the course of the experiment. Cells have shrinkage and detached morphology when they were treated with either the anticancer drug paclitaxel or other compounds, confirming their ability to kill cancer cells.
In addition to detecting the caspase activation using our HeLa-C3 cells, the cell morphology changes was also examined after the treatment of the tested compounds.

HeLa-C3 cells [2] = assay: Apoptosis-inducing effect: caspase-3 activation, YFP/CFP emission ratio (FRET biosensor) in HeLa-C3 cells; conditions: for Apoptotic effect at 25 μM / Apoptotic effect at 50 μM / Apoptotic effect at 100 μM: 72 h
Protocol: The biological activity of Compounds 1-4 was evaluated for apoptosis-inducing effects using genetically engineered HeLa-C3 cells that can produce a fluorescent biosensor capable of detecting caspase-3 activation. These cells emit a green light under normal growth conditions and change to a blue light when caspase-3 is activated during apoptosis to cleave the sensor protein inside the cells. This color change allows one to use a fluorescent plate reader to directly detect the activation level of caspase-3 in HeLa-C3 cells during the course of the compound treatment in a noninvasive way. Based on our previous test results, the emission ratio of YFP (yellow fluorescent protein)/CFP (cyanfluorescent proteins) is usually between 6 and 8 in normal cells, and this ratio will decrease to a value below 3 if a compound can activate caspase-3 and kill cancer cells. Therefore, any compound that can reduce the YFP/CFP emission ratio to a value below 3 is considered positive in activating apoptosis.
Bioassay: The bioassay method was described in our previous paper with some modifications. All the testing samples were dissolved in DMSO to make stock solutions. The concentration of each stock was at least 1000 times higher than the working concentration. HeLa-C3 cells, which can detect apoptotic cell death involving caspase activation, were cultured in minimum essential medium (MEM) containing 10% fetal bovine serum, 100 U/ml penicillin, […] streptomycin, in a 5% CO2 humidity incubator at 37° C. The sample well for apoptotic activity testing was prepared by seeding a well on a 96-well plate with 7500 HeLa-C3 cells suspended in 100 μl culture medium. After 12-16 h incubation, the old medium was removed and 100 μl freshly prepared culture medium containing the testing sample at a certain working concentration was added to both the sample well and the corresponding background well. Culture medium containing 0.1% DMSO was the negative control while 500 nM paclitaxel was the positive control. After that, the plate was read repeatedly by a Perkin-Elmer Victor reader with excitation wavelength at 440±10 nm and emission wavelength at 486±8 nm for CFP (cyan fluorescent protein) and 535±8 nm for YFP (yellow fluorescent protein) at indicated time points. The data acquisition duration was up to 72 h. The YFP/CFP emission ratio was then calculated. The background fluorescence was measured from the wells containing only medium. After subtracting the background fluorescence from the recorded signal, net YFP and CFP readings were obtained. In this paper, Y/C emission ratio is used to represent the effect of FRET, which is equal to the net YFP reading divided by the net CFP reading from the same well. If YFP/CFP emission ratio was reduced below 3, the testing sample was considered as a good apoptotic inducer at that concentration. All samples were tested in triplicate. The whole experiment was repeated for three times.

HeLa cells = assay: MTT assay, HeLa cell growth inhibition; conditions: for IC50: HeLa cells treated for 72 h, MTT; for HeLa cell growth inhibiting effect: HeLa cells, 72 h, IC50 below or near 10
Protocol: IC50 of four new compounds was measured using MTT assay. MTT powder was dissolved in PBS at a concentration of 5 mg/mL. For MTT assay, 10 μL of MTT solution was added into each well of a 96-well plate. After 2 h incubation at 37° C., 100 μL 10% SDS solution with 0.01 M HCl was added to dissolve the purple crystals. After 24 h incubation, the optical density (OD) readings at 595 nm were measured using a plate reader. Firstly, 2,500 HeLa cells suspended in 100 μL MEM medium were seeded respectively in a 96-well plate. After 24 h incubation, fresh medium that contained various concentrations of each compound were added into the 96-well plate and changed the old medium. The concentrations applied were ranged from 100 μM to 1.5625 μM, which was achieved by doing two-fold dilutions for 6 times. The OD values of the control group at 0 h and 72 h together with the compound treated groups at 72 h from the MTT assay were measured using a plate reader. IC50 is the concentration of a compound inhibiting 50% of the cell growth.

Compound	cell morphology (HeLa-C3 cells [1]; 50 μM, 24, 48 and 72 h)	Apoptotic effect at 25 μM (HeLa-C3 cells [2])	Apoptotic effect at 50 μM (HeLa-C3 cells [2])	Apoptotic effect at 100 μM (HeLa-C3 cells [2])	caspase-3 activation (HeLa-C3 cells [2]; within 72 h at 100 μM and 50 μM)	IC50 (HeLa cells)	cell morphology (HeLa-C3 cells [1]; 25 μM, 24, 48 and 72 h)	HeLa cell growth inhibiting effect (HeLa cells)	cell morphology (HeLa-C3 cells [1]; 500 nM, positive control)
CC(C)=CC[C@H]1C[C@@]23CC4(CCC(C)(C)C[C@]4(C)O)OC2=C(OC(=O)c2ccc(O)c(O)c2)C(=O)[C@](CC=C(C)C)(C3=O)C1(C)C (relative stereo) [Compound 3, Paucinone C]	cell shrinkage	− (“−” means the YFP/CFP emission ratio of compound treated HeLa-C3 cells was above 3 at 72 h.)	+ (“+” means the YFP/CFP emission ratio of compound treated HeLa-C3 cells was below 3 at 72 h.)	+ (“+” means the YFP/CFP emission ratio of compound treated HeLa-C3 cells was below 3 at 72 h.)	could activate caspase-3	24.3 ± 0.6 µM			
CC(C)=CC[C@H]1C[C@@]23CC4(CCC(C)(C)C[C@]4(C)O)OC2=C(C(=O)c2ccc(O)c(O)c2)C(=O)[C@](CC=C(C)C)(C3=O)C1(C)C (relative stereo) [Compound 1, Paucinone A]		+ (“+” means the YFP/CFP emission ratio of compound treated HeLa-C3 cells was below 3 at 72 h.)	+ (“+” means the YFP/CFP emission ratio of compound treated HeLa-C3 cells was below 3 at 72 h.)	+ (“+” means the YFP/CFP emission ratio of compound treated HeLa-C3 cells was below 3 at 72 h.)		10 ± 0.5 µM	cell shrinkage	strong HeLa cell growth inhibiting effects	
CC(C)=CC[C@H]1C[C@@]23CC4(CCC(C)(C)C[C@@]4(C)O)OC2=C(C(=O)c2ccc(O)c(O)c2)C(=O)[C@](CC=C(C)C)(C3=O)C1(C)C (relative stereo) [Compound 2, Paucinone B]		+ (“+” means the YFP/CFP emission ratio of compound treated HeLa-C3 cells was below 3 at 72 h.)	+ (“+” means the YFP/CFP emission ratio of compound treated HeLa-C3 cells was below 3 at 72 h.)	+ (“+” means the YFP/CFP emission ratio of compound treated HeLa-C3 cells was below 3 at 72 h.)		8.2 ± 0.8 µM	cell shrinkage	strong HeLa cell growth inhibiting effects	
CC(=O)O[C@H]1C(=O)[C@@]2(C)[C@H]([C@H](OC(=O)c3ccccc3)[C@]3(O)C[C@H](OC(=O)[C@H](O)[C@@H](NC(=O)c4ccccc4)c4ccccc4)C(C)=C1C3(C)C)[C@]1(OC(C)=O)CO[C@@H]1C[C@@H]2O [paclitaxel, reference compound]									typical cell shrinkage morphology
C=C1CCCC(C)(C)[C@H]1C[C@H]1C[C@@]23CC(C(C)(C)O)OC2=C(C(=O)c2ccc(O)c(O)c2)C(=O)[C@](CC=C(C)C)(C3=O)C1(C)C (relative stereo) [Compound 4, Paucinone D]		+ (“+” means the YFP/CFP emission ratio of compound treated HeLa-C3 cells was below 3 at 72 h.)	+ (“+” means the YFP/CFP emission ratio of compound treated HeLa-C3 cells was below 3 at 72 h.)	+ (“+” means the YFP/CFP emission ratio of compound treated HeLa-C3 cells was below 3 at 72 h.)		5.8 ± 0.6 µM	cell shrinkage	strong HeLa cell growth inhibiting effects	

Reference: patent publication US20110301233A1, “Novel Polyisoprenylated Benzophenone Derivatives from Garcinia paucinervis” (priority 2010, published 2011)
